The values that follow are results of earlier work, collected in publication PMC4626739 (Toxins, 2015).

For the substance Kalata B1, the “resistance to chaotropic agents and proteases” value is reported as “extremely resistant”; the thermal stability result is reported as “highly thermostable”.
